# Test results: patent US20230150986A1, “ANTAGONISTS OF THE MUSCARINIC ACETYLCHOLINE RECEPTOR M4” (Vanderbilt University, priority 2019, published 2023)
# Biological target: T1, Human M4 (Homo sapiens, UniProt P08173)
# T1 construct: Human or rat M4 cDNA, along with the chimeric G protein Gq,5, were transfected into Chinese hamster ovary (CHO-K1) cells; expressed in transfected cells; host or cells: CHO-K1 (M4/Gqi5/CHO)
# T1 sequence (P08173 1-479): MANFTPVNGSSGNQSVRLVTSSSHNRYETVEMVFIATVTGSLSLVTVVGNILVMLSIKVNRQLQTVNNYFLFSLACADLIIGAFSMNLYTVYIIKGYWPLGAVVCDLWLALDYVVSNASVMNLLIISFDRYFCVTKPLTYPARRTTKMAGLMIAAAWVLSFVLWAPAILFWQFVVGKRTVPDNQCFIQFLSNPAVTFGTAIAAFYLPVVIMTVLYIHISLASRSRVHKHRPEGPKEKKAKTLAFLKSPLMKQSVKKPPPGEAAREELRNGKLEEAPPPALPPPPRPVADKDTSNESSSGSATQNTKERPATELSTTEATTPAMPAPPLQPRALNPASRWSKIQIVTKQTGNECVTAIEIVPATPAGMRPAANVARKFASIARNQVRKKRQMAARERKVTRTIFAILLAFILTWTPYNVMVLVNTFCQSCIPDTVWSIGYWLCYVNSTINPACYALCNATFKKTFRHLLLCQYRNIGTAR
# Assay: mAChR M4 cell-based functional assay (calcium flux, decrease of EC80 acetylcholine response)
# Conditions: for Human M4 Emin: % ACh maximum at 30 μM; for IC50: CHO-K1 cells with human M4 and Gqi5, EC80 acetylcholine
# Procedure: Human or rat M4 cDNA, along with the chimeric G protein Gq,5, were transfected into Chinese hamster ovary (CHO-K1) cells purchased from the American Type Culture Collection using Lipofectamine2000. M4/Gqi5/CHO cells were grown in Ham's F-12 medium containing 10% heat-inactivated fetal bovine serum (FBS), 20 mM HEPES, 500 μg/mL G^418 sulfate, and 200 μg/mL Hygromycin B.
# For high throughput measurement of agonist-evoked increases in intracellular calcium, CHO-K1 cells stably expressing muscarinic receptors were plated in growth medium lacking G418 and hygromycin at 15,000 cells/20 μL/well in Greiner 384-well black-walled, tissue culture (TC)-treated, clear-bottom plates (VWR). Cells were incubated overnight at 37° C. and 5% CO2. The next day, cells were washed using an ELX 405 (BioTek) with assay buffer; the final volume was then aspirated to 20 μL. Next, 20 μL of a 2.3 μM stock of Fluo-4/acetoxymethyl ester (Invitrogen, Carlsbad, Calif.), prepared as a 2.3 mM stock in DMSO and mixed in a 1:1 ratio with 10% (w/v) Pluronic F-127 and diluted in assay buffer, was added to the wells and the cell plates were incubated for 50 min at 37° C. and 5% CO2. Dye was removed by washing with the ELX 405 and the final volume was aspirated to 20 μL. Compound master plates were formatted in a 10 point concentration-response curve (CRC) format (1:3 dilutions) in 100% DMSO with a starting concentration of 10 or 1 mM using a BRAVO liquid handler (Agilent). Test compound CRCs were then transferred to daughter plates (240 nL) using the Echo acoustic plate reformatter (Labcyte, Sunnyvale, Calif.) and then diluted into assay buffer (40 μL) to a 2× stock using a Thermo Fisher Combi (Thermo Fisher Scientific, Waltham, Mass.).
# Calcium flux was measured using the Functional Drug Screening System (FDSS) 6000 or 7000 (Hamamatsu Corporation, Tokyo, Japan) as an increase in the fluorescent static ratio. Compounds were applied to cells (20 μL, 2×) using the automated system of the FDSS at 2 seconds into the protocol and the data were collected at 1 Hz. At 143 s, 10 μL of an EC20 concentration of the muscarinic receptor agonist acetylcholine was added (5×), followed by the addition of […] of an EC80 concentration of acetylcholine at the 268 s time point (5×). Agonist activity was analyzed as a concentration-dependent increase in calcium mobilization upon compound addition. Positive allosteric modulator activity was analyzed as a concentration-dependent increase in the EC2o acetylcholine response. Antagonist activity was analyzed as a concentration-dependent decrease in the EC80 acetylcholine response; for the purposes of the tables herein, an IC50 (inhibitory concentration 50) was calculated as a concentration-dependent decrease of the response elicited by an EC80 concentration of acetylcholine. Concentration-response curves were generated using a four-parameter logistical equation in XLFit curve fitting software (IDBS, Bridgewater, N.J.) for Excel (Microsoft, Redmond, Wash.) or Prism (GraphPad Software, Inc., San Diego, Calif.) or the Dotmatics software platform (Dotmatics, Bishop's Stortford, UK).
# Compounds were synthesized as described above. Activity (IC50 and Emin) was determined in the mAChR M4 cell-based functional assay as described above and the data are shown in Table 2.
Human M4 Emin [%],IC50 [nM],SMILES
3,133,"Fc1cc(F)c(F)c(-c2ccc(N[C@H]3C[C@@H]4CN(Cc5cc(Cl)ccn5)C[C@@H]4C3)nn2)c1 [Compound 19, (3aR,5s,6aS)-2-((4-chloropyridin-2-yl)methyl)-N-(6-(2,3,5-trifluorophenyl)pyridazin-3-yl)octahydrocyclopenta[c]pyrrol-5-amine]"
3,12,"[2H]C([2H])([C@@H]1CCCOC1)N1C[C@H]2C[C@H](Nc3ccc(-c4cc(F)cc(F)c4F)nn3)C[C@H]2C1 [Compound 66, (3aR,5s,6aS)-2-(((S)-tetrahydro-2H-pyran-3-yl)methyl-d2)-N-(6-(2,3,5-trifluorophenyl)pyridazin-3-yl)octahydrocyclopenta[c]pyrrol-5-amine]"
10,960,"Fc1cc(F)c(F)c(-c2ccc(N[C@H]3C[C@@H]4CN(Cc5cccc(F)c5F)C[C@@H]4C3)nn2)c1 [Compound 90, (3aR,5s,6aS)-2-(2,3-difluorobenzyl)-N-(6-(2,3,5-trifluorophenyl)pyridazin-3-yl)octahydrocyclopenta[c]pyrrol-5-amine]"
3,17,CC1(O)CC(CN2C[C@H]3C[C@H](Nc4ccc(-c5cc(F)cc(F)c5F)nn4)C[C@H]3C2)C1 (stereo partly drawn) [Compound 52]
4,72,"Fc1cc(F)c(F)c(-c2ccc(N[C@H]3C[C@@H]4CN(CCC5COC5)C[C@@H]4C3)nn2)c1 [Compound 84, (3aR,5s,6aS)-2-(2-(oxetan-3-yl)ethyl)-N-(6-(2,3,5-trifluorophenyl)pyridazin-3-yl)octahydrocyclopenta[c]pyrrol-5-amine]"
3,39.6,"[2H]C([2H])(N1C[C@H]2C[C@H](Nc3ccc(-c4cc(F)cc(F)c4F)nn3)C[C@H]2C1)C1(CC)CCOCC1 [Compound 33, (3aR,5s,6aS)-2-((4-ethyltetrahydro-2H-pyran-4-yl)methyl-d2)-N-(6-(2,3,5-trifluorophenyl)pyridazin-3-yl)octahydrocyclopenta[c]pyrrol-5-amine]"
1,141,"[2H]C(C)(N1C[C@H]2C[C@H](Nc3ccc(-c4cc(F)cc(F)c4F)nn3)C[C@H]2C1)C1(C)CCOCC1 (stereo partly drawn) [Compound 45, (3aR,5s,6aS)-2-(1-(4-methyltetrahydro-2H-pyran-4-yl)ethyl-1-d)-N-(6-(2,3,5-trifluorophenyl)pyridazin-3-yl)octahydrocyclopenta[c]pyrrol-5-amine]"
3,1.47,"Fc1cc(F)c(F)c(-c2ccc(N[C@H]3C[C@@H]4CN(C[C@H]5CC6CCC5O6)C[C@@H]4C3)nn2)c1 (stereo partly drawn) [Compound 31, (3aR,5s,6aS)-2-(((2R)-7-oxabicyclo[2.2.1]heptan-2-yl)methyl)-N-(6-(2,3,5-trifluorophenyl)pyridazin-3-yl)octahydrocyclopenta[c]pyrrol-5-amine]"
3,41,"Fc1cc(F)c(F)c(-c2ccc(N[C@H]3C[C@@H]4CN(CC5(F)CCCCC5)C[C@@H]4C3)nn2)c1 [Compound 87, (3aR,5s,6aS)-2-((1-fluorocyclohexyl)methyl)-N-(6-(2,3,5-trifluorophenyl)pyridazin-3-yl)octahydrocyclopenta[c]pyrrol-5-amine]"
3,0.56,"[2H]C([2H])([C@H]1COCCO1)N1C[C@H]2C[C@H](Nc3ccc(-c4cc(F)cc(F)c4F)nn3)C[C@H]2C1 [Compound 39, (3aR,5s,6aS)-2-(((S)-1,4-dioxan-2-yl)methyl-d2)-N-(6-(2,3,5-trifluorophenyl)pyridazin-3-yl)octahydrocyclopenta[c]pyrrol-5-amine]"
3,48.3,"Fc1cc(F)c(F)c(-c2ccc(N[C@H]3C[C@@H]4CN(C[C@H]5COCCO5)C[C@@H]4C3)nn2)c1 [Compound 29, (3aR,5s,6aS)-2-(((S)-1,4-dioxan-2-yl)methyl)-N-(6-(2,3,5-trifluorophenyl)pyridazin-3-yl)octahydrocyclopenta[c]pyrrol-5-amine]"
3,35,"[2H]C([2H])([C@@H]1COCCO1)N1C[C@H]2C[C@H](Nc3ccc(-c4cc(F)cc(F)c4F)nn3)C[C@H]2C1 [Compound 42, (3aR,5s,6aS)-2-(((R)-1,4-dioxan-2-yl)methyl-d2)-N-(6-(2,3,5-trifluorophenyl)pyridazin-3-yl)octahydrocyclopenta[c]pyrrol-5-amine]"
5,15,"[2H]C([2H])(C1CC(C)(O)C1)N1C[C@H]2C[C@H](Nc3ccc(-c4cc(F)cc(F)c4F)nn3)C[C@H]2C1 (stereo partly drawn) [Compound 55, 1-methyl-3-(((3aR,5s,6aS)-5-((6-(2,3,5-trifluorophenyl)pyridazin-3-yl)amino)hexahydrocyclopenta[c]pyrrol-2(1H)-yl)methyl-d2)cyclobutan-1-ol]"
2,63.2,"Fc1cc(F)c(F)c(-c2ccc(N[C@H]3C[C@@H]4CN(C[C@H]5CCOC5)C[C@@H]4C3)nn2)c1 [Compound 30, (3aR,5s,6aS)-2-(((R)-tetrahydrofuran-3-yl)methyl)-N-(6-(2,3,5-trifluorophenyl)pyridazin-3-yl)octahydrocyclopenta[c]pyrrol-5-amine]"
3,4.63,"CC1(CN2C[C@H]3C[C@H](Nc4ccc(-c5cc(F)cc(F)c5F)nn4)C[C@H]3C2)CCOCC1 [Compound 11, (3aR,5s,6aS)-2-((4-methyltetrahydro-2H-pyran-4-yl)methy)-N-(6-(2,3,5-trifluorophenyl)pyridazin-3-yl)octahydrocyclopenta[c]pyrrol-5-amine]"
3,2.22,"Fc1cc(F)c(F)c(-c2ccc(N[C@H]3C[C@@H]4CN(Cc5cc6n(n5)CCOC6)C[C@@H]4C3)nn2)c1 [Compound 36, (3aR,5s,6aS)-2-((6,7-dihydro-4H-pyrazolo[5,1-c][1,4]oxazin-2-yl)methyl)-N-(6-(2,3,5-trifluorophenyl)pyridazin-3-yl)octahydrocyclopenta[c]pyrrol-5-amine]"
3,20.9,"Fc1cc(F)c(F)c(-c2ccc(N[C@H]3C[C@@H]4CN(C5CCCCCC5)C[C@@H]4C3)nn2)c1 [Compound 6, (3aR,5s,6aS)-2-cycloheptyl-N-(6-(2,3,5-trifluorophenyl)pyridazin-3-yl)octahydrocyclopenta[c]pyrrol-5-amine]"
3,13.5,"Fc1cc(F)c(F)c(-c2ccc(N[C@H]3C[C@@H]4CN(C5CCC6(CCOCC6)CC5)C[C@@H]4C3)nn2)c1 [Compound 5, (3aR,5s,6aS)-2-(3-oxaspiro[5.5]undecan-9-yl)-N-(6-(2,3,5-trifluorophenyl)pyridazin-3-yl)octahydrocyclopenta[c]pyrrol-5-amine]"
